The values below come from ChEMBL document CHEMBL5634158, “From garden to lab: C-3 chemical modifications of tomatidine unveil broad-spectrum ATP synthase inhibitors to combat bacterial resistance” (Eur J Med Chem, 2023).

Data set [1] is described as follows: Inhibition of Staphylococcus aureus ATCC 29213 ATP synthase activity preincubated for 30 mins followed by NADH/ADP addition and measured after 60 mins by luciferin/luciferase luminescence assay.
Data set [2] in a line: Inhibition of mitochondrial ATP synthase in human HepG2 cells preincubated for 30 mins followed by NADH/ADP addition and measured after 60 mins by luminescence assay. It is filed as cell-based.
Data set [3] deals with Escherichia coli. The experiment in a line: Antibacterial activity against Escherichia coli MC4100 harbouring lptD mutant assessed as reduction in bacterial growth by CLSI based broth microdilution method. The format is functional.
Data set [4] has as its system Staphylococcus aureus. The data set can be described thus: Antibacterial activity against methicillin resistant Staphylococcus aureus ATCC BAA-41/USA-100 assessed as reduction in microbial growth incubated for 20 hrs under aerobic condition by CLSI based broth microdilution method. The format is functional. A general note: Dilution methods test growth across graded concentrations, often in twofold steps.

Data set [5] deals with Escherichia coli. The data set can be described thus: Antibacterial activity against NDM1-producing carbapenem-resistant Escherichia coli ATCC BAA-2471 assessed as reduction in microbial growth incubated for 20 hrs under aerobic condition by CLSI based broth microdilution method. It is filed as functional.
The test system of data set [6] is Escherichia coli. The data set can be described thus: Antibacterial activity against Escherichia coli MC4100 assessed as reduction in bacterial growth by CLSI based broth microdilution method. It is filed as functional.
Data set [7] concerns Escherichia coli. The experiment in a line: Antibacterial activity against Escherichia coli MC4100 harbouring acrAB mutant assessed as reduction in bacterial growth by CLSI based broth microdilution method. It is filed as functional.
Data set [8] deals with Escherichia coli. The data set can be described thus: Antibacterial activity against colistin resistant Escherichia coli harboring mcr-1 gene assessed as reduction in microbial growth incubated for 20 hrs under aerobic condition by CLSI based broth microdilution method. The format is functional.
In data set [9] the test system is Escherichia coli. The data set can be described thus: Antibacterial activity against Escherichia coli ATCC 25922 assessed as reduction in microbial growth incubated for 20 hrs under aerobic condition by CLSI based broth microdilution method. It is filed as functional.
Data set [10] deals with Escherichia coli. The data set can be described thus: Antibacterial activity against Escherichia coli producing extended spectrum beta-lactamase CTX-M-15 assessed as reduction in microbial growth incubated for 20 hrs under aerobic condition by CLSI based broth microdilution method. It is filed as functional.
The subject of data set [11] is Staphylococcus aureus. The experiment in a line: Antibacterial activity against methicillin resistant Staphylococcus aureus ATCC 700699/Mu50 assessed as reduction in microbial growth incubated for 20 hrs under aerobic condition by CLSI based broth microdilution method. The format is functional.
Data set [12] can be described thus: Inhibition of Escherichia coli ATCC 25922 ATP synthase activity preincubated for 30 mins followed by NADH/ADP addition and measured after 60 mins by luciferin/luciferase luminescence assay.
Data set [13] has as its system Staphylococcus aureus. The data set can be described thus: Antibacterial activity against Staphylococcus aureus ATCC 29213 assessed as reduction in microbial growth incubated for 20 hrs under aerobic condition by CLSI based broth microdilution method. It is filed as functional.
For data set [14], the system named is Staphylococcus aureus. The data set can be described thus: Antibacterial activity against Staphylococcus aureus ATCC 29213 hemB SCV assessed as reduction in microbial growth incubated for 20 hrs under aerobic condition by CLSI based broth microdilution method. It is filed as functional.
The subject of data set [15] is Escherichia coli. The experiment in a line: Antibacterial activity against Escherichia coli producing extended spectrum beta-lactamase KPC assessed as reduction in microbial growth incubated for 20 hrs under aerobic condition by CLSI based broth microdilution method. The format is functional.
Data set [16] deals with Staphylococcus aureus. The data set can be described thus: Antibacterial activity against Staphylococcus aureus ATCC 29213 assessed as fold decrease in MIC incubated for 20 hrs under aerobic condition by CLSI based broth microdilution method. The format is functional.
For data set [17], the system named is Escherichia coli. The experiment in a line: Antibacterial activity against Escherichia coli ATCC 25922 assessed as fold decrease in MIC for 20 hrs under aerobic condition by CLSI based broth microdilution method. It is filed as functional.
The test system of data set [18] is Escherichia coli. The data set can be described thus: Antibacterial activity against antibiotic/colistin resistant Escherichia coli harboring mcr-1 gene assessed as reduction in microbial growth incubated for 20 hrs under aerobic condition by CLSI based broth microdilution method. The format is functional.
For data set [19], the system named is Staphylococcus aureus. The experiment in a line: Antibacterial activity against antibiotic resistant Staphylococcus aureus ATCC 29213 hemB SCV assessed as reduction in microbial growth incubated for 20 hrs under aerobic condition by CLSI based broth microdilution method. The format is functional.
Data set [20] concerns Staphylococcus aureus. The data set can be described thus: Antibacterial activity against antibiotic resistant methicillin resistant Staphylococcus aureus ATCC BAA-41/USA-100 assessed as reduction in microbial growth incubated for 20 hrs under aerobic condition by CLSI based broth microdilution method. The format is functional.
In data set [21] the test system is Escherichia coli. The experiment in a line: Antibacterial activity against antibiotic resistant Escherichia coli producing extended spectrum beta-lactamase CTX-M-15 assessed as reduction in microbial growth incubated for 20 hrs under aerobic condition by CLSI based broth microdilution method. It is filed as functional.
Data set [22] relates to Escherichia coli. The experiment in a line: Antibacterial activity against antibiotic susceptible Escherichia coli producing extended spectrum beta-lactamase CTX-M-15 assessed as reduction in microbial growth incubated for 20 hrs under aerobic condition by CLSI based broth microdilution method. It is filed as functional.
The subject of data set [23] is Staphylococcus aureus. The experiment in a line: Antibacterial activity against antibiotic susceptible Staphylococcus aureus ATCC 29213 assessed as reduction in microbial growth incubated for 20 hrs under aerobic condition by CLSI based broth microdilution method. The format is functional.
Data set [24] relates to Escherichia coli. The experiment in a line: Antibacterial activity against antibiotic susceptible Escherichia coli producing extended spectrum beta-lactamase KPC assessed as reduction in microbial growth incubated for 20 hrs under aerobic condition by CLSI based broth microdilution method. It is filed as functional.
The subject of data set [25] is Staphylococcus aureus. The data set can be described thus: Antibacterial activity against antibiotic resitant/methicillin resistant Staphylococcus aureus ATCC 700699/Mu50 assessed as reduction in microbial growth incubated for 20 hrs under aerobic condition by CLSI based broth microdilution method. It is filed as functional.
For data set [26], the system named is Escherichia coli. The experiment in a line: Antibacterial activity against NDM1-producing carbapenem/antibiotic resistant Escherichia coli ATCC BAA-2471 assessed as reduction in microbial growth incubated for 20 hrs under aerobic condition by CLSI based broth microdilution method. The format is functional.
Data set [27] deals with Escherichia coli. The data set can be described thus: Antibacterial activity against antibiotic susceptible Escherichia coli ATCC 25922 assessed as reduction in microbial growth incubated for 20 hrs under aerobic condition by CLSI based broth microdilution method. The format is functional.
Data set [28] relates to Staphylococcus aureus. The experiment in a line: Antibacterial activity against wild type Staphylococcus aureus ATCC 29213 assessed as reduction in microbial growth by CLSI based broth microdilution method. The format is functional.
Data set [29] deals with Staphylococcus aureus. The experiment in a line: Antibacterial activity against Staphylococcus aureus ATCC 29213 SCV assessed as reduction in microbial growth by CLSI based broth microdilution method. It is filed as functional.
The test system of data set [30] is Staphylococcus aureus. The data set can be described thus: microbe, parasite or virus in culture. The settings on record: ATCC 700699/Mu50, 20 h.
Description: Antibacterial activity against antibiotic intermediately resitant/methicillin resistant Staphylococcus aureus ATCC 700699/Mu50 assessed as reduction in microbial growth incubated for 20 hrs under aerobic condition by CLSI based broth microdilution method
For data set [31], the system named is Escherichia coli. The data set can be described thus: Antibacterial activity against antibiotic susceptible /colistin resistant Escherichia coli harboring mcr-1 gene assessed as reduction in microbial growth incubated for 20 hrs under aerobic condition by CLSI based broth microdilution method. The format is functional.
The test system of data set [32] is Escherichia coli. The data set can be described thus: microbe, parasite or virus in culture. The settings on record: 20 h.
Description: Antibacterial activity against antibiotic resistant Escherichia coli producing extended spectrum beta-lactamase KPC assessed as reduction in microbial growth incubated for 20 hrs under aerobic condition by CLSI based broth microdilution method
Data set [33] concerns Escherichia coli. The experiment in a line: Antibacterial activity against NDM1-producing carbapenem resistant/antibiotic susceptible Escherichia coli ATCC BAA-2471 assessed as reduction in microbial growth incubated for 20 hrs under aerobic condition by CLSI based broth microdilution method. The format is functional, organism-based.
Data set [34] concerns Escherichia coli. The data set can be described thus: Selectivity ratio of MIC for Escherichia coli MC4100 to MIC for Escherichia coli MC4100 harbouring acrAB mutant. The format is toxicity, organism-based. The settings on record: in vivo.

In brackets after ≈: the same amount, converted by molar mass.

Broadly, the IC50 is the midpoint of a concentration-inhibition curve. The low end stands for greater potency in that assay, the high end for weaker potency in that assay. As for `C[C@H]1CC[C@]2(NC1)O[C@H]1C[C@H]3[C@@H]4CC[C@H]5CC(NC[C@@H](N)Cc6ccc(Cl)c(Cl)c6)CC[C@]5(C)[C@H]4CC[C@]3(C)[C@H]1[C@@H]2C` (mixture of isomers), the IC50 is 0.83 µM in data set [1], 13.9 µM in [2] and 1.95 µM in data set [12]. Moreover, the MIC in data set [3] was found to be 2 mg/L; in [4], 2 mg/L; in [5] it was 8 mg/L; in data set [6], 8 mg/L; in data set [7], 4 mg/L; in [8], 8 mg/L. The MIC in [9] turned out to be 4 mg/L; in data set [10], 4 mg/L; in data set [11] it was 1 mg/L; in data set [13] it was 1 mg/L; in data set [14], 0.5 mg/L; in [15], 8 mg/L.
Turning to `C[C@H]1CC[C@]2(NC1)O[C@H]1C[C@H]3[C@@H]4CC[C@H]5CC(NC[C@@H]6Cc7ccccc7CN6)CC[C@]5(C)[C@H]4CC[C@]3(C)[C@H]1[C@@H]2C` (mixture of isomers), the “fold change (FC)” value in data set [16] and in data set [17] was 2 in each case. Besides, the MIC was more than 128 mg/L in [9] and 16 mg/L in [13].
Regarding `NC[C@H]1O[C@H](O[C@H]2[C@H](O)[C@@H](O[C@H]3O[C@H](CO)[C@@H](O)[C@H](N)[C@H]3O)[C@H](N)C[C@@H]2N)[C@H](N)C[C@@H]1O` [TOBRAMYCIN], the MIC was 32 mg/L in [18]; 16 mg/L in data set [19]; more than 64 mg/L in data set [20]; 64 mg/L in data set [21]; not above 0.03 mg/L in [22]; 0.5 mg/L in [23]. For the same molecule, the MIC in data set [24] was 0.5 mg/L; in [25], more than 64 mg/L; in data set [26], 64 mg/L; in data set [27] it was 0.24 mg/L.
As to `C[C@H]1CC[C@]2(NC1)O[C@H]1C[C@H]3[C@@H]4CC[C@H]5C[C@@H](O)CC[C@]5(C)[C@H]4CC[C@]3(C)[C@H]1[C@@H]2C` [TOMATIDINE], the MIC is more than 64 mg/L in data set [28]; more than 128 mg/L in data set [9]; more than 64 mg/L in data set [13]; 0.06 mg/L in data set [14]; 0.06 mg/L in data set [29].
`CN[C@H](CC(C)C)C(=O)N[C@H]1C(=O)N[C@@H](CC(N)=O)C(=O)N[C@H]2C(=O)N[C@H]3C(=O)N[C@H](C(=O)N[C@H](C(=O)O)c4cc(O)cc(O)c4-c4cc3ccc4O)[C@H](O)c3ccc(c(Cl)c3)Oc3cc2cc(c3O[C@@H]2O[C@H](CO)[C@@H](O)[C@H](O)[C@H]2O[C@H]2C[C@](C)(N)[C@H](O)[C@H](C)O2)Oc2ccc(cc2Cl)[C@H]1O` [VANCOMYCIN]: the MIC in data set [30] was 8 mg/L (≈ 5.52 µM).
Consider `CC(C)(O/N=C(\C(=O)N[C@@H]1C(=O)N2C(C(=O)[O-])=C(C[n+]3ccccc3)CS[C@H]12)c1csc(N)n1)C(=O)O` [CEFTAZIDIME], for which the MIC in data set [31] was 0.25 mg/L; in data set [21] it was more than 32 mg/L; in data set [22], 1 mg/L; in data set [32] it was more than 32 mg/L; in data set [26] it was more than 32 mg/L; in data set [27] it was 0.25 mg/L.
In the case of COLISTIN, the MIC is 32 mg/L in [18], 0.5 mg/L in data set [24], 1 mg/L in data set [33] and 1 mg/L in data set [27].
Regarding `C[C@H]1CC[C@]2(NC1)O[C@H]1C[C@H]3[C@@H]4CC[C@H]5CC(NC[C@@H](N)Cc6ccc(O)cc6)CC[C@]5(C)[C@H]4CC[C@]3(C)[C@H]1[C@@H]2C` (mixture of isomers), the MIC in data set [3] is 8 mg/L; in data set [6] it was more than 128 mg/L; in data set [7] it was 16 mg/L; in [9] it was 64 mg/L; in [13], 8 mg/L; in data set [14] it was 0.25 mg/L. The Selectivity ratio in [34] was more than 8. Moreover, inhibition in data set [12] was half-maximal at 1.6 µM (IC50).
